Drawing on ChEMBL document CHEMBL1144311, “Synthesis of argentatin A derivatives as growth inhibitors of human cancer cell lines in vitro” (Bioorg Med Chem Lett, 2005), this text covers IC50 for ten molecules.

What all share (assay type): functional, cell-based
For assay [1], the system named is PC-3. The assay is described as follows: Inhibitory concentration towards human prostatic adenocarcinoma cell line (PC-3) was determined.
For another assay, the system named is U-251. Put plainly: Inhibitory concentration towards human central nervous system glioblastoma cell line (U251) was determined.
For a further assay, the system named is K562. The assay is described as follows: Inhibitory concentration towards chronic myelogenous leukemic cell line (K562) was determined. The conditions noted are these: Homo sapiens.
In the next assay the test system is HCT-15. Put plainly: Inhibitory concentration towards human colon adenocarcinoma cell line (HCT-15) was determined.
In assay [2] the test system is PC-3. Put plainly: Inhibitory concentration against human prostatic adenocarcinoma cell line (PC-3) was determined.

Molecules are shown by their SMILES.

As a reminder, the IC50 is the concentration needed to halve the response being measured. Take `CC1(C)c2oncc2C[C@]23C[C@]24CC[C@]2(C)C([C@]5(C)CC[C@H](C(C)(C)O)O5)[C@@H](O)C[C@@]2(C)C4CCC13` (stereo not given in full): the IC50 was found to be 13 µM in the assay on PC-3 [1], 11.3 µM in the assay on U-251, 11 µM in the assay with K562 and 10.2 µM in the assay with HCT-15.
For `CC1(C)C(=O)CC[C@]23C[C@]24CC[C@]2(C)C([C@]5(C)CC[C@H](C(C)(C)O)O5)[C@@H](O)C[C@@]2(C)C4CCC13` (stereo not given in full), the IC50 with PC-3 [1] stood at 20.2 µM; in the assay with U-251, 27.3 µM; in the assay with K562 it was 38.6 µM; in the assay on HCT-15, 31.7 µM.
`CC1(C)C(=O)[C@H](Br)C[C@]23C[C@]24CC[C@]2(C)C([C@]5(C)CC[C@H](C(C)(C)O)O5)[C@@H](O)C[C@@]2(C)C4CCC13` (stereo not given in full): the IC50 in the assay on PC-3 [2] was found to be 11.1 µM; in the assay on U-251, 13.9 µM; in the assay with K562, 4.34 µM; with HCT-15, 3.23 µM.
As for `CC1(C)C(=O)C=C[C@]23C[C@]24CC[C@]2(C)C([C@]5(C)CC[C@H](C(C)(C)O)O5)[C@@H](O)C[C@@]2(C)C4CCC13` (stereo not given in full), the IC50 with PC-3 [1] came to 15.3 µM; with U-251 it was 18.9 µM; with K562 it was 16.8 µM; in the assay with HCT-15, 16.7 µM.
On to `CC(=O)OC1C[C@@]2(C)C3CCC4C(C)(C)C(=O)C=C[C@@]45C[C@@]35CC[C@]2(C)C1[C@]1(C)CC[C@H](C(C)(C)OC(C)=O)O1` (stereo not given in full), for which the IC50 in the assay on PC-3 [1] is 13.9 µM; in the assay with U-251, 58.4 µM; in the assay with K562, more than 100 µM; with HCT-15, more than 100 µM.
Turning to `CC(=O)O[C@H]1C[C@@]2(C)C3CCC4C(C)(C)/C(=N\O)CC[C@@]45C[C@@]35CC[C@]2(C)C1[C@]1(C)CC[C@H](C(C)(C)OC(C)=O)O1` (stereo not given in full), the IC50 was 12.6 µM in the assay with PC-3 [1], 21.4 µM in the assay on U-251, 15.2 µM in the assay on K562 and 28.9 µM with HCT-15.
In the case of `CC1(C)/C(=N/O)C=C[C@]23C[C@]24CC[C@]2(C)C([C@]5(C)CC[C@H](C(C)(C)O)O5)[C@@H](O)C[C@@]2(C)C4CCC13` (stereo not given in full), the IC50 was 46.9 µM in the assay with PC-3 [1], 26.8 µM in the assay on U-251, 44.4 µM with K562 and 35.8 µM with HCT-15.
On to `CC(=O)O[C@H]1C[C@@]2(C)C3CCC4C(C)(C)C(=O)CC[C@@]45C[C@@]35CC[C@]2(C)C1[C@]1(C)CC[C@H](C(C)(C)OC(C)=O)O1` (stereo not given in full), for which the IC50 is 22.7 µM in the assay on PC-3 [1], 30.5 µM with U-251, 68.4 µM in the assay on K562 and 40.7 µM in the assay with HCT-15.
For `CC1(C)C(=O)CC[C@]23C[C@]24CC[C@]2(C)C([C@]5(C)CCC(=O)O5)C(=O)C[C@@]2(C)C4CCC13` (stereo not given in full), the IC50 in the assay on PC-3 [1], in the assay on U-251, in the assay with K562 and in the assay on HCT-15 was more than 100 µM in each case.
Consider `CC1(C)C(O)=C(C=O)C[C@]23C[C@]24CC[C@]2(C)C([C@]5(C)CC[C@H](C(C)(C)O)O5)C(O)C[C@@]2(C)C4CCC13` (stereo not given in full), for which the IC50 in the assay with PC-3 [1] stood at 5.69 µM; in the assay with U-251, 5.88 µM; in the assay on K562, 14.4 µM; in the assay on HCT-15, 9.82 µM.
